Measured values taken from the supplement of paper PMC11208160.

Assay: recombinant barcode read abundance after kanamycin selection (control-corrected) (log10(CPM+1)); higher = more efficient recombination; sequences stand for … in AGTGCAGAGAAAATCGGCCAGTTTTCTCTGCCTGCAGTCCGCATGCCGT…AGATTTATGCAGCGGACTGCCTTTCTCCCAAAGTGATAAACCGGACAGTATCATGGACCGGTTTTCCCGGTAATCCGTATTTGCAAGGTTGGTTTCACT; site = the 11-nt target
Experimental: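 Pooled E. coli target-specificity screen for the IS621 bridge recombinase. Each library plasmid pairs an 11-nt target (CT core) with a bridge RNA whose target-binding loop (9-nt LTG + 4-nt RTG) is reprogrammed; the rest of the 177-nt WT IS621 bridge RNA scaffold is fixed. The plasmid is co-electroporated with a WT donor plasmid; recombinase is induced with 0.1 mM IPTG and recombinants are selected on kanamycin. Recombinant barcodes are sequenced, converted to CPM, averaged over two biological replicates and corrected by the unselected control CPM. Molecule = full bridge RNA written as DNA: LTG = specificity nt 1-9, RTG = reverse complement of specificity nt 8-11, in the WT scaffold.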
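Further: IS621 recombinase and bridge RNA in Escherichia coli cells.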

Sequence	recombinant barcode read abundance (log10)
ACCTTACCTTGGGTTCTAACCTGTTGCGG (site ACCTTACCTCC)	0.617
ACCTTACCTTGGGTTCTAACCTGTTGCGT (site ACCTTACCTAC)	1.97
ACCTTACCTTGGGTTCTAACCTGTTGCGT (site ACCTTACCTCC)	0.504
ACGAAGGCTTGGGTTCTAACCTGTTGCCG (site ACGAAGGCTAG)	0.182
ACGAAGGCTTGGGTTCTAACCTGTTGCCG (site ACGAAGGCTCG)	0.691
ACGACCGCTTGGGTTCTAACCTGTTGCCT (site ACGAACGCTAG)	0.571
ACGACCGCTTGGGTTCTAACCTGTTGCCT (site ACGACCGCTAG)	0.804
ACGACCGCTTGGGTTCTAACCTGTTGCCT (site ACGAGCGCTAG)	0.119
ACGACCGCTTGGGTTCTAACCTGTTGCCT (site ACGATCGCTAG)	0.245
ACGACTACTTGGGTTCTAACCTGTTGCCT (site ACGACTACTAG)	0.128
ACGACTACTTGGGTTCTAACCTGTTGCCT (site ACGACTCCTAG)	0.00963
ACGACTACTTGGGTTCTAACCTGTTGCCT (site ACGACTGCTAG)	0.113
ACGACTACTTGGGTTCTAACCTGTTGCCT (site ACGACTTCTAG)	0.048
ACGACTGCTTGGGTTCTAACCTGTTGCCT (site ACGACTACTAG)	0.166
ACGACTGCTTGGGTTCTAACCTGTTGCCT (site ACGACTCCTAG)	0.163
ACGACTGCTTGGGTTCTAACCTGTTGCCT (site ACGACTGCTAG)	0.738
ACGACTGCTTGGGTTCTAACCTGTTGCCT (site ACGACTTCTAG)	0.247
ACGAGAGCTTGGGTTCTAACCTGTTGCCT (site ACAAGAGCTAG)	0.92
ACGAGAGCTTGGGTTCTAACCTGTTGCCT (site ACCAGAGCTAG)	0.0692
ACGAGAGCTTGGGTTCTAACCTGTTGCCT (site ACGAGAGCTAG)	1.11
ACGAGAGCTTGGGTTCTAACCTGTTGCCT (site ACTAGAGCTAG)	0.135

Sequence	recombinant barcode read abundance (log10)
ACGAGCCCTTGGGTTCTAACCTGTTGCCA (site ACGAGCCCTTG)	0.666
ACGAGCCCTTGGGTTCTAACCTGTTGCCA (site ACGCACCCTTG)	0.151
ACGAGGACTTGGGTTCTAACCTGTTGCCG (site ACGAAGACTCG)	0.232
ACGAGGACTTGGGTTCTAACCTGTTGCCG (site ACGAGGACTCG)	1.09
ACGAGTACTTGGGTTCTAACCTGTTGCGG (site ACGAGTACTCA)	0.392
ACGAGTACTTGGGTTCTAACCTGTTGCGG (site ACGAGTACTCC)	1.82
ACGATTCCTTGGGTTCTAACCTGTTGCTT (site ACGAATCCTAA)	0.0108
ACGATTCCTTGGGTTCTAACCTGTTGCTT (site ACGACTCCTAA)	0.142
ACGATTCCTTGGGTTCTAACCTGTTGCTT (site ACGAGTCCTAA)	0.0586
ACGATTCCTTGGGTTCTAACCTGTTGCTT (site ACGATTCCTAA)	0.0242
ACGCAGTCTTGGGTTCTAACCTGTTGCCT (site ACGCAATCTAG)	0.313
ACGCAGTCTTGGGTTCTAACCTGTTGCCT (site ACGCACTCTAG)	0.0573
ACGCAGTCTTGGGTTCTAACCTGTTGCCT (site ACGCAGTCTAG)	0.798
ACGCAGTCTTGGGTTCTAACCTGTTGCCT (site ACGCATTCTAG)	0.129
ACGGACCCTTGGGTTCTAACCTGTTGCAT (site ACGAACCCTAG)	0.225
ACGGACCCTTGGGTTCTAACCTGTTGCAT (site ACGGACCCTAT)	2.82
ACGGAGACTTGGGTTCTAACCTGTTGCAT (site ACGGAGACTAT)	2.78
ACGGAGACTTGGGTTCTAACCTGTTGCAT (site GTACTACCTCG)	0.108
ACGGCTCCTTGGGTTCTAACCTGTTGCTG (site ACGACTCCTCA)	0.0439
ACGGCTCCTTGGGTTCTAACCTGTTGCTG (site ACGCCTCCTCA)	0.116
ACGGCTCCTTGGGTTCTAACCTGTTGCTG (site ACGGCTCCTCA)	1.35

Sequence	recombinant barcode read abundance (log10)
ACGGCTCCTTGGGTTCTAACCTGTTGCTG (site ACGTCTCCTCA)	0.123
ACGGGGCCTTGGGTTCTAACCTGTTGCCG (site ACGGGGCCTCG)	1.88
ACGGGGCCTTGGGTTCTAACCTGTTGCCG (site GTATATACTAA)	0.116
ACGGGTACTTGGGTTCTAACCTGTTGCCA (site AAGGGTTCTTG)	0.355
ACGGGTACTTGGGTTCTAACCTGTTGCCA (site ACGGGTACTTG)	1.02
ACGGTTGCTTGGGTTCTAACCTGTTGCCT (site ACGGGTGCTAG)	0.434
ACGGTTGCTTGGGTTCTAACCTGTTGCCT (site ACGGTTGCTAG)	2.22
ACGTAATCTTGGGTTCTAACCTGTTGCTT (site ACGTAATCTAA)	0.207
ACGTAATCTTGGGTTCTAACCTGTTGCTT (site CGGTAATCTAA)	0.246
ACGTGAACTTGGGTTCTAACCTGTTGCCT (site ACATGAACTAG)	0.532
ACGTGAACTTGGGTTCTAACCTGTTGCCT (site ACCTGAACTAG)	0.0714
ACGTGAACTTGGGTTCTAACCTGTTGCCT (site ACGTGAACTAG)	0.416
ACGTGAACTTGGGTTCTAACCTGTTGCCT (site ACTTGAACTAG)	0.0355
ACGTGTCCTTGGGTTCTAACCTGTTGCGG (site ACGTGTCCTCC)	1.88
ACGTGTCCTTGGGTTCTAACCTGTTGCGG (site GGAGAGACTAT)	0.242
ACGTTGTCTTGGGTTCTAACCTGTTGCCT (site ACATTGTCTAG)	1.24
ACGTTGTCTTGGGTTCTAACCTGTTGCCT (site ACCTTGTCTAG)	0.0624
ACGTTGTCTTGGGTTCTAACCTGTTGCCT (site ACGTTGTCTAG)	0.767
ACGTTGTCTTGGGTTCTAACCTGTTGCCT (site ACTTTGTCTAG)	0.0891
ACTAAGACTTGGGTTCTAACCTGTTGCTG (site ACTAAGACTCA)	1.96
ACTAAGACTTGGGTTCTAACCTGTTGCTG (site AGTAAGACTTA)	0.0302

Sequence	recombinant barcode read abundance (log10)
ACTACTCCTTGGGTTCTAACCTGTTGCGA (site ACTACTCCTTC)	0.93
ACTACTCCTTGGGTTCTAACCTGTTGCGA (site ACTAGTCCTTG)	0.119
ACTAGGACTTGGGTTCTAACCTGTTGCGG (site ACTAGGACTAC)	0.0821
ACTAGGACTTGGGTTCTAACCTGTTGCGG (site ACTAGGACTCC)	2.93
ACTAGGACTTGGGTTCTAACCTGTTGCGG (site ACTAGGACTGC)	0.444
ACTAGGACTTGGGTTCTAACCTGTTGCGG (site ACTAGGACTTC)	0.302
ACTAGTCCTTGGGTTCTAACCTGTTGCAT (site ACTAGTCCTAA)	0.239
ACTAGTCCTTGGGTTCTAACCTGTTGCAT (site ACTAGTCCTAC)	0.0726
ACTAGTCCTTGGGTTCTAACCTGTTGCAT (site ACTAGTCCTAG)	0.0896
ACTAGTCCTTGGGTTCTAACCTGTTGCAT (site ACTAGTCCTAT)	1.29
ACTAGTCCTTGGGTTCTAACCTGTTGCGT (site ACTAGTCCTAA)	0.0427
ACTAGTCCTTGGGTTCTAACCTGTTGCGT (site ACTAGTCCTAC)	2.25
ACTAGTCCTTGGGTTCTAACCTGTTGCGT (site ACTAGTCCTAG)	0.133
ACTAGTCCTTGGGTTCTAACCTGTTGCGT (site ACTAGTCCTAT)	0.894
ACTATAACTTGGGTTCTAACCTGTTGCTT (site ACTATAACTAA)	0.401
ACTATAACTTGGGTTCTAACCTGTTGCTT (site ACTCTAACTAA)	0.535
ACTATAACTTGGGTTCTAACCTGTTGCTT (site ACTGTAACTAA)	0.125
ACTATAACTTGGGTTCTAACCTGTTGCTT (site ACTTTAACTAA)	0.0487
ACTCACACTTGGGTTCTAACCTGTTGCTT (site ACTCACACTAA)	1.06
